{"source": "patent US10294228B2", "about": "“Breathing control modulating compounds, and methods of making and using same” (NEURAD LTD., priority 2015, dated 2019)", "type_in_all_cases": "in vivo, rat", "key": {"[1]": {"test_system": "morphine-tolerant rats (CSA model)", "test": "Apnea hypopnea index and ventilation during sleep in rats receiving chronic morphine (CSA model)", "conditions": "10 mg/kg PO, FIG. 15", "description": "Central sleep apnea (CSA) and hypopnea are especially prevalent in people on chronic opioid therapy. Accordingly, a novel rodent model of chronic opioid-induced sleep disordered breathing that mimics many features of the condition in people was developed.\nMorphine was administered chronically to rats in their drinking water at a dose and duration that elicited morphine tolerance. Morphine sulfate was added to the drinking water of individually housed rats beginning at 0.1 mg/ml morphine and increasing the concentration in increments so that a final concentration of 0.6 mg/ml was achieved within 2 weeks of beginning morphine exposure. During the first three weeks after starting morphine administration, rats were acclimated to whole body plethysmography chambers.\nRespiratory rate (fR), tidal volume (VT), minute volume (VE), and CSA and hypopnea frequency and length (i.e., duration of each apnea) were measured continuously while animals were unrestrained in whole-body plethysmography chambers. Animals breathed room air for the duration of the study, except where indicated for the hyperoxia validation study. […]\nA respiratory waveform was generated from the expansion and contraction of the air that was exchanged between the animal and the chamber. […] The airflow signal was amplified and continuously recorded using PowerLab and LabChart 7.0. […]"}, "[2]": {"test_system": "rats with evoked obstructions", "test": "Evoked obstructive apnea model", "description": "(§1) Two rodent models of obstructive apnea were used: one that modeled spontaneous obstructions (spontaneous obstructive apnea model) which become progressively worse over time, and another (evoked obstructive apnea model) where the investigator retained control over the variables that define OSA severity, such as apnea frequency (f OA) and apnea duration (OA t).\n(§2) All animal experiments were performed according to protocols approved by the Institutional Animal Care and Use Committee (IACUC) at Galleon Pharmaceuticals, Inc. All experimental procedures were performed under general anesthesia. All experiments were non-survival procedures and animals were euthanized at the conclusion of the experiment prior to the animal recovering from anesthesia. Two rodent models of obstructive apnea were used, one that modeled spontaneous obstructions that become progressively worse over time (Spontaneous Obstructive Apnea Model), and another where the investigator retained control over the parameters that defined OSA severity, such as f OA, and OA t, and by controlling these directly also controlling of the magnitude of oxy-hemoglobin desaturation (Evoked Obstructive Apnea Model)."}, "[3]": {"test_system": "anesthetized supine rats with spontaneous obstructive apneas", "test": "Spontaneous obstructive apnea model", "description": "as §1\nThe majority of studies were conducted using the spontaneous obstructive apnea model, where rats were positioned in dorsal recumbency (supine), and permitted to breathe spontaneously on room air. Air flow was measured continuously by whole-body plethysmography. […] OA were defined as periods of no air flow for more than 2 respiratory cycles accompanied by efforts to breathe (e.g., increased transthoracic esophageal inspiratory pressure). After neck flexion, eupnea became increasingly interrupted by clusters of upper airway obstructions (f OA 30±3 hr^−1 (mean±SEM), range: 13 to 94 hr^−1; OA t 11±3 s, range: 6 to 15 s). OA severity was further quantified by the peak change in hemoglobin oxygen saturation during an obstruction (ΔSpO2: −20±1%, range: −11 to −31%). Clustered OAs were often separated by long periods of eupneic breathing, which presumably returned when activation of a relevant afferent/effector reflex (e.g., chemoreceptor driven increased motor drive to the genioglossus muscle) reached a threshold necessary to reestablish a patent upper airway.\nas §2\nRats were initially anesthetized in a rodent anesthesia induction chamber using 3% (dial setting) isoflurane in 97% oxygen (O2) for surgical instrumentation. When rats had become recumbent they were removed from the chamber and placed in dorsal recumbency (supine) on a heating pad. Anesthesia was maintained with 2% isoflurane in 98% oxygen and rats were permitted to breathe spontaneously on room air. After instrumentation, isoflurane was slowly discontinued and urethane (1.5 to 1.8 g/kg, IV) administered to maintain anesthesia without interruption. Supplemental oxygen was discontinued at this time.\nThe femoral artery was cannulated to permit continuous recording of arterial blood pressure and intermittent sampling of blood for pH and blood gas analyses, and single time point quantification of test article plasma concentrations. The femoral vein was cannulated to permit test compound administration and fluid support. The arterial cannula was connected to a heparinized saline filled pressure transducer. The arterial pressure waveforms were sampled at 2K/second and band-pass filtered between 0-1000 Hz. […]"}}, "note": "Counter-ions that a name gives are not always drawn."}
{"molecule": "CCCNc1nc(NC)nc2c(NCC(C)(C)O)nc(NC)nc12", "note": "[Compound 31a, 1-(2,6-Bis-methylamino-8-propylamino-pyrimido[5,4-d]pyrimidin-4-ylamino)-2-methyl-propan-2-ol Hydrochloride]", "values": [{"measurement": "apnea-hypopnea index", "setting": "[1]", "value": "reduces"}, {"measurement": "minute volume", "setting": "[1]", "value": "without significantly increasing"}, {"measurement": "airway (genioglossus, or GG) responses to evoked obstructions", "setting": "[2]; rats, IV infusion MD 0.008 mg/kg/min 15 min then 0.002 mg/kg/min 45 min, HD 0.024 then 0.006 mg/kg/min, FIG. 21A", "value": "increases"}, {"measurement": "diaphragm (DIA) responses to evoked obstructions", "setting": "[2]; same rats and infusions as FIG. 21A, FIG. 21B", "value": "insignificant increases"}, {"measurement": "SpO2 desaturations", "setting": "[3]; FIG. 18, model not named in the legend", "value": "reduction"}, {"measurement": "frequency of obstructive apneas (OA)", "setting": "[3]; FIG. 19, model not named in the legend", "value": "reduction"}, {"measurement": "arterial oxygen content deficit", "setting": "[3]; FIG. 20, model not named in the legend", "value": "reduction"}, {"measurement": "upper airway (total genioglossus EMG amplitude) response to spontaneous obstructive apneas", "setting": "[3]; FIG. 22", "value": "increase"}, {"measurement": "upper airway response (genioglossus activity) to spontaneous obstructive apneas", "setting": "[3]; IV infusion, FIG. 23", "value": "dose-dependently increases"}]}
